Measured values published in patent publication US5688943A, “Benzodiazepine derivatives useful as CCK-receptor antagonists” (Yamanouchi Pharmaceutical Co., Ltd., priority 1992, dated 1997).

Tests used:
CCK-B receptors = target: T1, CCK-B receptors (Rattus norvegicus, UniProt P30553); assay: Measurement of binding affinity for CCK-B receptors ([125I]BH-CCK-8, rat brain membranes); parameters: species or system SD rats; conditions: for IC50: rat brain membranes, [125I]BH-CCK-8, 25° C., 120 minutes, pH 6.5, read-out: Receptor binding affinity IC50, CCK-B; for A/B Ratio: ratio IC50 (CCK-A)/IC50 (CCK-B)
T1 construct: the whole brain was immediately excised from each of the rats and homogenized; from tissue; host or cells: SD rat whole brain membranes
T1 sequence (P30553 whole entry): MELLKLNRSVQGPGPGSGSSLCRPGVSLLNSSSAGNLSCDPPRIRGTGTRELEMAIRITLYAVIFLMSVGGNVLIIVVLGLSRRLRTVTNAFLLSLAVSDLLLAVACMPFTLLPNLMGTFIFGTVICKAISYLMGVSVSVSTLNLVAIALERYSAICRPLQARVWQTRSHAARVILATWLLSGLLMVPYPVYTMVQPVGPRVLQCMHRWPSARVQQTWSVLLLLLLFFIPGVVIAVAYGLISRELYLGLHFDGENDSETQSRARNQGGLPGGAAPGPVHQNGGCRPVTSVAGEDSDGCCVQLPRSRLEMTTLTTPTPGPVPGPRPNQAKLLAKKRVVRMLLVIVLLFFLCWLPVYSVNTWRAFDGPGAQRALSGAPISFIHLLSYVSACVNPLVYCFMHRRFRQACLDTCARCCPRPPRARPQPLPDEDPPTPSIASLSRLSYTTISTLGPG
Method: Measurement of binding affinity for CCK-B receptors
About 100 SD rats were decapitated without anaesthesia, the whole brain was immediately excised from each of the rats and homogenized in 10-fold volume of 0.32M aqueous solution of sucrose by the use of a Teflon-coated homogenizer, the homogenate thus obtained was centrifuged for ten minutes at 900 g by the use of a cooled centrifuge, and the supernatant was further centrifuged for 15 minutes at 11500 g. The precipitate thus obtained was dispersed in 50 mM Tris-HCl buffer (pH 7.4) containing 0.08% Triton X-100, this suspension was allowed to stand for 30 minutes and again centrifuged for 15 minutes at 11500 g, the precipitate thus obtained was washed twice with 5 mM Tris-HCl buffer and twice with 50 mM Tris-HCl buffer in that order with centrifugal separation, the washed precipitate was suspended in 50 mM Tris-HCl buffer, and the suspension thus obtained was stored at -80° C. until the membrane preparation was required.
The membrane preparations were warmed to room temperature, diluted with 10 mM HEPES buffer (containing 130 mM NaCl, 5 mM MgCl2, 1 mM EGTA and 0.25 mg/ml bacitracin; pH 6.5) and incubated at 25° C. for 120 minutes in the presence of [^125 I]BH-CCK-8 and the test compound, then separated by suction filtration. Non-specific binding was determined in the presence of 1 μM CCK-8. The amount of labelled ligand bound to the receptor was measured by the use of a γ-counter; IC50 values were determined, being that concentration of test compound required to inhibit specific binding by 50%.
(§1) A high affinity for the CCK-A receptor in a gastrin/CCK-B antagonist is thought to be undesirable as it may lead to side-effects such as cholestasis and gall stone formation during therapy. Therefore it is preferable for the therapeutic agent to be selective for the CCK-B receptor. This selectivity is expressed by the ratio IC50 (CCK-A)/IC50 (CCK-B); the higher the value of this ratio the better is the selectivity.

CCK-A receptors = target: T2, CCK-A receptors (Rattus norvegicus, UniProt P30551); assay: Measurement of binding affinity for CCK-A receptors ([3H]L-364,718, rat pancreas membranes); parameters: species or system SD rat; conditions: [3H]L-364,718, 37° C., 30 minutes, read-out: Receptor binding affinity IC50, CCK-A
T2 construct: The pancreas of an SD rat was homogenized; from tissue; host or cells: SD rat pancreas membranes
T2 sequence (P30551 1-444): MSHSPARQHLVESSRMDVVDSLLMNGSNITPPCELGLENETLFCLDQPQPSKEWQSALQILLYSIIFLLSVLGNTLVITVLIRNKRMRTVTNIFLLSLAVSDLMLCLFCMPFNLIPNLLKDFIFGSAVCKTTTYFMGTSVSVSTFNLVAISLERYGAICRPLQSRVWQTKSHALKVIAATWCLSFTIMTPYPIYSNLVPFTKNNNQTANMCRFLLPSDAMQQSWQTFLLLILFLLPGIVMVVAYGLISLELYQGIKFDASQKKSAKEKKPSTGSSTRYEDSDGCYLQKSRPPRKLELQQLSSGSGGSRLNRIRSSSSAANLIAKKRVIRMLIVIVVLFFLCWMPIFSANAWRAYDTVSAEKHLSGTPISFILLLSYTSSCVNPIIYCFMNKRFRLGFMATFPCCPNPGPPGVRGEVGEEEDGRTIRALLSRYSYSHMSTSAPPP
Method: Measurement of binding affinity for CCK-A receptors
The pancreas of an SD rat was homogenized in a 20-fold volume of 50 mM Tris-HCl buffer (pH 7.7) by the use of a Polytrone-type homogenizer, the homogenate was twice centrifuged for 10 minutes at 50000 g by the use of an ultra-centrifuge, the precipitate thus obtained was suspended in a 40-fold volume of 50 mM Tris-HCl buffer (containing 0.2% BSA, 5 mM MgCl2, 0.1 mg/ml bacitracin and 5 mM DTT; pH 7.7), and the suspension was stored at -80° C. until the membrane preparations were required.
The membrane preparations were then warmed to room temperature, diluted 1:10 with the buffer and incubated at 37° C. for 30 minutes in the presence of [^3 H]L-364,718 and the test compound then separated by suction filtration. Non-specific binding was determined in the presence of 1 μM L-364,718. The amount of labelled ligand bound to the receptor was measured by the use of a liquid scintillation counter; IC50 values were determined, being that concentration of test compound required to inhibit specific binding by 50%
as §1

| Compound | IC50 (CCK-B receptors) | A/B Ratio (CCK-B receptors) | IC50 (CCK-A receptors) |
| --- | --- | --- | --- |
| CC(=O)N1CCC[C@H]1C(=O)CN1C(=O)C(NC(=O)Nc2cccc(C)c2)N=C(c2ccccc2)c2ccccc21 (mixture of isomers) [Example 9, N-((3RS)-1-((2S)-1-Acetyl-2-pyrrolidylcarbonylmethyl)-2,3-dihydro-2-oxo-5-phenyl-1H-1,4-benzodiazepin-3-yl)-N'-(3-methylphenyl)urea] | 7.3 nM | > 1,400 | > 10000 nM |
| NC(=O)c1cccc(NC(=O)NC2N=C(c3ccccc3)c3ccccc3N(CC(=O)C3CCCC3)C2=O)c1 (racemic) [Example 35, N-((3RS)-1-Cyclopentylcarbonylmethyl-2,3-dihydro-2-oxo-5-phenyl-1H-1,4-benzodiazepin-3-yl)-N'-(3-carboxamidophenyl)urea] | 1.1 nM | 1,700 | 1900 nM |
| Cc1cccc(NC(=O)NC2N=C(c3ccccc3)c3ccccc3N(CC(=O)CC3CCCCC3)C2=O)c1 (racemic) [Example 32, N-((3RS)-1-Cyclohexylmethylcarbonylmethyl-2,3-dihydro-2-oxo-5-phenyl-1H-1,4-benzodiazepin-3-yl)-N'-(3-methylphenyl)urea] |  | 1,700 | 480 nM |
| Cc1cccc(NC(=O)NC2N=C(c3ccccc3)c3ccccc3N(CC(=O)C3(C)CCCCC3)C2=O)c1 (racemic) [Example 34, N-((3RS)-1-((1-Methylcyclohexyl)carbonylmethyl)-2,3-dihydro-2-oxo-5-phenyl-1H-1,4-benzodiazepin-3-yl)-N'-(3-methylphenyl)urea] |  | > 26,000 | > 10000 nM |
| O=C(Nc1cccc(C(=O)O)c1)N[C@@H]1N=C(c2ccccc2)c2ccccc2N(CC(=O)C2CCCC2)C1=O [Example 23, N-((3R)-1-Cyclopentylcarbonylmethyl-2,3-dihydro-2-oxo-5-phenyl-1H-1,4-benzodiazepin-3-yl)-N'-(3-carboxyphenyl)urea] | 0.08 nM | 11,000 | 870 nM |
| O=C(Nc1cccc([N+](=O)[O-])c1)NC1N=C(c2ccccc2)c2ccccc2N(CC(=O)C2CCCC2)C1=O (racemic) [Example 44, N-((3RS)-1-Cyclopentylcarbonylmethyl-2,3-dihydro-2-oxo-5-phenyl-1H-1,4-benzodiazepin-3-yl)-N'-(3-nitrophenyl)urea] | 0.17 nM | 9,400 | 1600 nM |
| Cc1cccc(NC(=O)N[C@@H]2N=C(c3ccccc3)c3ccccc3N(C[C@H](O)C3CCCC3)C2=O)c1 [Example 19, N-((3R)-1-((2R)-2-Cyclopentyl-2-hydroxyethyl)-2,3-dihydro-2-oxo-5-phenyl-1H-1,4-benzodiazepin-3-yl)-N'-(3-methylphenyl)urea] | 0.92 nM | 1,200 | 1 nM |
| CC(C)(C)C(=O)CN1C(=O)C(NC(=O)Nc2cccc([N+](=O)[O-])c2)N=C(c2ccccc2)c2ccccc21 (racemic) [Example 45, N-((3RS)-1-tert-Butylcarbonylmethyl-2,3-dihydro-2-oxo-5-phenyl-1H-1,4-benzodiazepin-3-yl)-N'-(3-nitrophenyl)urea] | 0.16 nM |  |  |
| Cc1cccc(NC(=O)N[C@@H]2N=C(c3ccccc3)c3ccccc3N(C[C@H](O)C3CCCC3)C2=O)c1 (racemic) [Example 12, N-((3RS)-1-((2RS)-2-Cyclopentyl-2-hydroxyethyl)-2,3-dihydro-2-oxo-5-phenyl-1H-1,4-benzodiazepin-3-yl)-N'-(3-methylphenyl)urea] | 1.4 nM | > 7,100 | > 10000 nM |
| O=C(Nc1cccc(C(=O)O)c1)NC1N=C(c2ccccn2)c2ccccc2N(CC(=O)C2CCCC2)C1=O (racemic) [Example 22, N-((3RS)-1-Cyclopentylcarbonylmethyl-2,3-dihydro-2-oxo-5-(2-pyridyl)-1H-1,4-benzodiazepin-3-yl)-N'-(3-carboxyphenyl)urea] | 3.5 nM | > 2,900 | > 10000 nM |
| Cc1cccc(NC(=O)N[C@@H]2N=C(c3ccccc3)c3ccccc3N(CC(=O)C3CCCC3)C2=O)c1 [Example 17, N-((3R)-1-Cyclopentylcarbonylmethyl-2,3-dihydro-2-oxo-5-phenyl-1H-1,4-benzodiazepin-3-yl)-N'-(3-methylphenyl)urea] | 0.07 nM | 36,000 | 2500 nM |
| Cc1cccc(NC(=O)N[C@@H]2N=C(c3ccccc3)c3ccccc3N(C[C@@H](O)C3CCCC3)C2=O)c1 (racemic) [Example 13, N-((3RS)-1-((2SR)-2-Cyclopentyl-2-hydroxyethyl)-2,3-dihydro-2-oxo-5-phenyl-1H-1,4-benzodiazepin-3-yl)-N'-(3-methylphenyl)urea] | 0.11 nM | > 91,000 | > 10000 nM |
| O=C(O)Cc1cccc(NC(=O)NC2N=C(c3ccccc3)c3ccccc3N(CC(=O)C3CCCC3)C2=O)c1 (racemic) [Example 31, N-((3RS)-1-Cyclopentylcarbonylmethyl-2,3-dihydro-2-oxo-5-phenyl-1H-1,4-benzodiazepin-3-yl)-N'-(3-carboxymethylphenyl)urea] | 0.53 nM | 6,400 | 3400 nM |
| O=C(Nc1cccc(C(=O)O)c1)N[C@@H]1N=C(c2ccccc2)c2ccccc2N(C[C@H](O)C2CCCC2)C1=O [Example 25, N-((3R)-1-((2R)-2-Cyclopentyl-2-hydroxyethyl)-2,3-dihydro-2-oxo-5-phenyl-1H-1,4-benzodiazepin-3-yl)-N'-(3-carboxyphenyl)urea] | 0.65 nM | > 15,000 | > 10000 nM |
| COc1cccc(NC(=O)NC2N=C(c3ccccc3)c3ccccc3N(CC(=O)C3CCCC3)C2=O)c1 (racemic) [Example 42, N-((3RS)-1-Cyclopentylcarbonylmethyl-2,3-dihydro-2-oxo-5-phenyl-1H-1,4-benzodiazepin-3-yl)-N'-(3-methoxyphenyl)urea] | 0.07 nM | 5,100 | 360 nM |
| O=C(Nc1cccc(C(=O)O)c1)N[C@@H]1N=C(c2ccccc2)c2ccccc2N(CC(O)C2CCCC2)C1=O (mixture of isomers) [Example 24, N-((3R)-1-((2RS)-2-Cyclopentyl-2-hydroxyethyl)-2,3-dihydro-2-oxo-5-phenyl-1H-1,4-benzodiazepin-3-yl)-N'-(3-carboxyphenyl)urea] | 0.97 nM | > 10,000 | > 10000 nM |
| Cc1cccc(NC(=O)NC2N=C(c3ccccn3)c3ccccc3N(CC(=O)C3CCCC3)C2=O)c1 (racemic) [Example 14, N-((3RS)-1-Cyclopentylcarbonylmethyl-2,3-dihydro-2-oxo-5-(2-pyridyl)-1H-1,4-benzodiazepin-3-yl)-N'-(3-methylphenyl)urea] |  | 22,000 |  |
